Assay results taken from patent US20120009152A1, “NITRIC OXIDE DONORS FOR TREATMENT OF DISEASE AND INJURY” (priority 2002, published 2012).

Key:
[1] = system: cerebral vessels in the ischemic boundary regions; assay: Angiogenesis in ischemic brain after embolic MCA occlusion (vascular perimeters, BrdU endothelial cells, three dimensional vessel analysis); assay type: in vivo, rat
Procedure: Male Wistar rats weighing 320-380 gm were employed. The middle cerebral artery (MCA) was occluded by placement of an embolus at the origin of the MCA.
(§1) DETANONOate (0.4 mg/kg) was intravenously administered to rats (n=8) 24 hours after stroke and daily (i.p) for an additional 6 consecutive days. Ischemic rats (n=8) treated with the same volume of decayed DETANONOate were used as a control group. All rats were sacrificed 14 days after stroke. 2) To examine the effect of exogenous NO on brain levels of VEGF, DETANONOate (0.4 mg/kg) or saline was administered to ischemic rats (n=3 for each group) with the identical paradigm described in Protocol 1. These rats were sacrificed 7 days after stroke. […] Rats were sacrificed 14 days after stroke.
Bromodeoxyuridine (BrdU, Sigma Chemical), the thymidine analog that is incorporated into the DNA of dividing cells during S-phase, was used for mitotic labeling. BrdU (50 mg/kg) was […] (i.p) daily for 13 consecutive days into ischemic rats starting 1 day after MCA occlusion.
To examine neovascularization in ischemic brain, fluorescein isothiocyanate (FITC) dextran (2×10^6 molecular weight, Sigma, St. Louis, Mo.; 0.1 ml of 50 mg/ml) was administered intravenously to the ischemic rats subjected to 14 days of MCAo. Ti brains were rapidly removed from the severed heads and placed in 4% of paraformaldehyde at 4° C. for 48 hours. Coronal sections (100 μm) were cut on a vibratome. The vibratome sections were analyzed with a Bio-Rad MRC 1024 (argon and krypton) laser-scanning confocal imaging system mounted onto a Zeiss microscope (Bio-Rad; Cambridge, Mass.), as previously described. Seven 100 μm thick vibratome coronal sections at 2 mm intervals from bregma 5.2 mm to bregma −8.8 mm from each animal injected with FITC-dextran were selected. Eight brain regions in the ipsilateral and contralateral hemispheres were selected within a reference coronal section (interaural 8.8 mm, bregma 0.8 mm). These regions were scanned in 512×512 pixel (276×276 μm^2) format in the x-y direction using a 4× frame-scan average and twenty-five optical sections along the z-axis with a 1 μm step-size were acquired under a 40× objective. Vascular branch points, segment lengths and diameters were measured in three dimensions using software developed in the laboratory. Image acquisition and analysis were performed blindly.
For BrdU immunostaining, DNA was first denatured by incubating brain sections (6 μm) in 50% formamide 2×SSC at 65° C. for 2 hours and then in 2N HCl at 37° C. for 30 minutes. Sections were then rinsed with tris buffer and treated with 1% of H2O2 to block endogenous peroxidase. Sections were incubated with a mouse monoclonal antibody (mAb) against BrdU (1:1000, Boehringer Mannheim, Indianapolis, Ind. overnight and incubated with biotinylated secondary antibody (1:200, Vector, Burlingame, Calif.) for 1 hour.
To quantify BrdU immunoreactive endothelial cells, numbers of endothelial cells and numbers of BrdU immunoreactive endothelial cells in ten enlarged vessels adjacent to the ischemic lesion were counted from each rat. Numbers of endothelial cells and BrdU immunoreactive endothelial cells in the ten vessels of the contralateral homologous area were also counted. Data are presented as percentage of BrdU immunoreactive endothelial cells to total endothelial cells in ten enlarged vessels from each rat.
Vascular perimeters were measured on coronal sections immunostained with an anti-von Willebrand factor antibody as previously described.

[2] = system: BrdU positive cells in the subventricular zone; assay: BrdU positive cells in ipsilateral subventricular zone, combination study; assay type: in vivo, rat; settings: treatment 1 day after MCAo; NN 0.4 mg/kg IP, hMSCs 1×10^6 cells iv; PBS control 29.8±8.8
Procedure: Male Wistar rats (n=32) were subjected to middle cerebral artery occlusion (MCAo) and were randomized with 8 rats in four treatment groups, with treatment initiated 1 day after stroke. Groups included: 1) phosphate buffered saline (PBS); 2) subtherapeutic DETA-NONOate (NN) at a dose of 0.4 mg/kg (IP); 3) subtherapeutic hMSCs (1×10^6 cells-iv); and 4) combination subtherapeutic NN and hMSCs. Functional outcome measurements consisted of a Neurologic Severity Scale (18 point scale) (NSS) and the Adhesive Removal Test performed prior to stroke, immediately before treatment and at 7 and 14 days after treatment. […] However, there was an overall hMSC effect on NSS at 14 days.
BrdU (50 mg/kg-ip) was injected daily for 14 days after treatment in all groups. BrdU is a thymidine analog that labels newly formed DNA and thereby identifies newly formed cells. […] BrdU found in the cytoplasm of macrophage-like cells were not counted. […] The percentage of BrdU reactive cells that express NeuN and GFAP proteins was approximately, 3%, 3% and 6%, respectively.

[3] = system: Mouse brain-derived endothelial cells; assay: Capillary-like tube formation assay; assay type: cell-based
Procedure: An in vitro angiogenesis assay was performed. Briefly, 0.8 ml of growth factor reduced Matrigel (Becton Dickinson) was added to pre-chilled 35 mm culture dishes and allowed to polymerize at 37° C. for 2 to 5 hours. […] For quantitative measurements of capillary tube formation, three random areas of Matrigel dishes were imaged and the length of continuous cords of three or more cells was measured.

[4] = system: rat VEGF; assay: ELISA for VEGF in ischemic boundary regions; assay type: in vivo; settings: control 13.4±1.5
Procedure: as §1
The ischemic boundary regions and homologous tissue in the contralateral hemisphere were dissected. The tissue was homogenized and centrifuged at 10,000 g for 20 min at 4° C. and the supernatant was collected. ELISA for VEGF in the supernatants was performed using a commercially available kit specific for rat VEGF (R&D, systems) according to the manufacture's instruction.

[5] = DETANONOate 0.4 mg/kg, three dimensional analysis

| SMILES | vessel enlargement in the contralateral hemisphere ([1]; DETANONOate 0.4 mg/kg from 24 h after stroke for 7 days, 14 days after stroke) | vascular perimeters around the ischemic lesion ([1]; DETANONOate 0.4 mg/kg from 24 h after stroke for 7 days, 14 days after stroke, vs decayed DETANONOate control) | numbers of proliferated (BrdU immunoreactive) endothelial cells ([1]; DETANONOate 0.4 mg/kg from 24 h after stroke for 7 days, vs control) | capillary segment diameters [1, 5] | capillary segment lengths [1, 5] | numbers of capillary segments in the boundary regions of ischemia ([1]; DETANONOate 0.4 mg/kg, three dimensional analysis, vs decayed DETANONOate) | BrdU positive cells in the ipsilateral hemisphere subventricular zone [2] | capillary-like tube formation ([3]; DETANONOate 0.2 μM, 3 hours, vs DMEM only) | VEGF levels in the ischemic boundary regions ([4]; DETANONOate 0.4 mg/kg from 24 h after stroke, 7 days after stroke, n=3) [pg/mL] | angiogenesis in ischemic brain ([1]; Sildenafil 2 mg/kg fed from 24 h after stroke, daily 7 days, 14 days after stroke) | capillary-like tube formation ([3]; Sildenafil 100 to 500 nM) | VEGF levels in the ischemic boundary ([4]; Sildenafil treated ischemic rats, n=3 per group) [pg/mL] |
| --- | --- | --- | --- | --- | --- | --- | --- | --- | --- | --- | --- | --- |
| NCCN(CCN)/[N+]([O-])=N/O [DETANONOate, (Z)-1-[N-(2-aminoethyl)-N-(2-ammonioethyl)aminio]diazen-1-ium-1,2-diolate] | did not enlarge vessels in the contralateral hemisphere | significantly (P<0.01) enlarged vascular perimeters | significantly (p<0.05) increased | significantly smaller diameters | shorter segment lengths | significantly (p<0.05) increased the numbers of capillary segments | 43.6±10.0 /section | significant increase in capillary-like tube formation | 28.9 ± 1.0 |  |  |  |
| CCCc1nn(C)c2c(=O)[nH]c(-c3cc(S(=O)(=O)N4CCN(C)CC4)ccc3OCC)nc12 [Sildenafil] |  |  |  |  |  |  |  |  |  | significant increase of angiogenesis | concentration-dependent capillary-like tube formation | 34.4 ± 2.9 |
